Here are results for four molecules from US8030493B2, “Monovalent and divalent salts of N-(5-hydroxynicotinoil) -L-glutamic acid exhibiting psychotropic (antidepressant and anxiolytic), neuroprotective, geroprotective and cerebroprotective action” (Obschestvo S Ogranichennoy Otvetstvennostyu “Natsionalnaya …, priority 2006, dated 2011).

Format in all cases: in vivo
The subject of one experiment is mice SAM P 10. The experiment in a line: Antidepressant activity: forced swimming in mice SAM. The settings on record: 10 mg/kg, first 6 minutes of forced swimming. The procedure: Exp. Gerontolol. 1997, […]. et al. Age-related deterioration in conditional avoidance task in the SAM-P/10 mouse, an animal model of spontaneous brain atrophy. Brain Res., 1993, v. 608, p. 266-272). To assess depressive condition the method of forced swimming was used (Porsolt R. D. et al., Behavioral despair in rats: a new model sensitive to antidepressant treatment. Europ. J. […] The mice were placed into cylinder 10 cm in diameter and 25 cm height. Cylinder was filled with water by 1⁄3 (27° C.). After unsuccessful attempts to get out of the water the animals have typical immovable posture, which is regarded as manifestation of “despair”.

Experiment [1] concerns mice exposed to hypobaric hypoxia. The experiment in a line: Acute hypobaric hypoxia in flow-exhaust chamber. Here is the method: (§1) White nondescript male mice with body weight 22-28 g were used in the experiments. Each dose level was studied in 10 animals. Control animals received equivalent volume of distilled water. Nooglutyl was used as reference agent. Study compounds were administered intraperitoneally 40 minutes before the experiment.
(§2) Acute hypobaric hypoxia was simulated in flow-exhaust chamber. Pressure was measured with altimeter, and elevation speed with variometer. The animals were “elevated” at the speed 20 m/s to the stage at 11000 m. The exposure lasted 10 minutes. Then the animals were mover down to the baseline level for 5 minutes. Hypoxia with hypercapnia in hermovolume was created by placement of the animal into 200 ml hermetically sealed glass vessels. Life period of the animals under hypoxic conditions was recorded. Each group comprised 10 animals.

Experiment [2] deals with mice exposed to hypoxia in hermovolume. The experiment in a line: Hypoxia with hypercapnia in hermovolume. The procedure:
as §1, §2

The subject of another experiment is rats with amnesia. Nature of the experiment: Antiamnestic activity: passive avoidance response (PAR) with amnesia by maximum electric shock. To be noted: rats with electric shock amnesia, 24 hours after learning. The procedure:
White nondescript male rats with body weight 250-280 g were used in the experiments. Each dose level was studied in 10 animals. Control animals received equivalent volume of distilled water. Nooglutyl was used as reference agent. Study compounds were administered intraperitoneally 40 minutes before the experiment. Experiment was carried out on the standard automated unit for passive avoidance response (Passive Avoidance) supplied by Lafayette Instrument Co., (USA) (Ader et al. Retention of a passive avoidance response as a function of the intensity and duration of electric shock. Psycho Sci. 1972, v. 26, p. 125-128; Voronina T. A. et al. “Textbook for Experimental (Preclinical Study) of novel pharmacological compounds”. Moscow, Medicina. 2005, p. 253-263 and 308-320). The unit was designed as small platform situated 1 m above the floor, which was illuminated with special lamp, and dark chamber with electrode floor connected with the platform. The rat was placed on illuminated platform in front of the entry to the dark chamber with its tail directed to the entry; the animal preferred dark chamber and quickly ran into it. In the dark chamber the animal received single pain stimulus with electric current (0.45 mA) and memorized that it was dangerous to enter dark chamber. Duration of the stimulus was determined from the running out of the animal from the dark chamber. To achieve amnesia maximum electric shock was used (50 Hz, 0.2 sec), which was made through corneal electrodes immediately after learning. Electric shock caused obliteration of the memory trace. Test for reproduction of passive avoidance response (PAR) (for retention of memory trace) was performed 24 hours after learning session and electric shock. The animal was placed on illuminated platform once again, and time of the presence on illuminated platform and dangerous dark chamber (no current was conducted to the floor during reproduction of PAR).
Control trained animals with reproduction of PAR without electric shock preferred to stay on illuminated platform. Obliteration of training with electric shock causes amnesia in the animals; as a result, the animals with short latent period enter dark chamber and stay there considerably longer than animals without amnesia (Table 2).

Experiment [3] deals with rats with hemorrhagic stroke. The experiment in a line: Hemorrhagic stroke: reproduction of passive avoidance response. To be noted: Nimodipin at 01.mg/kg. The text has this:
White nondescript male rats with body weight 200-250 g, which lived in vivarium and had feed (standard palletized feed) and water ad libitum, with natural alternation of day and night, were used in the experiments. Hemorrhagic stroke (local cerebral hemorrhage) was simulated according to method by A. N. Makarenko et al. (Method of local hemorrhage simulation I various structures of the brain in experimental animals. Journal Visshei Nervnoy Deyatelnosti—Journal of Higher Nervous Activities, 2002, v. 52, No 6, p. 765-768). In nembutal-anesthetized rats (40 mg/kg, i.m.) destruction of the brain tissue in capsule interna area was made with the use of special device (mandarin-knife) followed by application of blood (0.02-0.03 ml) taken from under the rat's tongue to the damaged area (within 2-3 minutes). False-operated animals underwent scalping and craniotomy. The animals were divided into 5 groups: intact rats, false-operated rats, animals with hemorrhagic stroke received nooglutyl at 20 mg/kg, and animals with hemorrhagic stroke received Compound I at 20 mg/kg. Effects were recorded within 24 hours and 14 days after the surgery. Learning ability and memory of the rats was examined in the model of passive avoidance response (PAR, Passive Avoidance supplied by Lafayette Instrument Co., USA). To determine neurological deficit in the animals Stroke-index McGrow scale modified by I. V. Gannushkina (Functional architectonics of the brain, Moscow, Medicina, 1977, 224 p.) was used. The severity of the condition was determined by the sum of the points. The number of rats with mild symptoms up to 2.5 points of Stroke-index scale (apathy, weakness of the extremities, unilateral semiptosis, tremor, circus movements) and severe manifestations of neurological disorders (3 to 10 points)—paresis of the extremities, palsy of low extremities, lateral position. The animals received single dose of nooglutyl and Compound I at the same dose 20 mg/kg intraperitoneally within 3-3.5 hours after the surgery. Controlled animals were treated with saline. At onset of the experiment each group comprised 15-20 animals. Mortality of the rats was recorded throughout the observation period (14 days). Statistical analysis was made using parametrical and non-parametrical methods and Biostat software. Nimodipin administered at 01.mg/kg according to above scheme was considered as a standard.

The mark [4] stands for this setting: 30 mg/kg intraperitoneally 40 minutes before the experiment.
Where [5] appears, read: 60 mg/kg intraperitoneally 40 minutes before the experiment.
[6] abbreviates: 120 mg/kg intraperitoneally 40 minutes before the experiment.
Setting [7] is: PAR reproduction within 24 hours.
[8] abbreviates: PAR reproduction within 14 days.

In the case of `CN(C)CCC=C1c2ccccc2CCc2ccccc21` [Amitryptilin, reference compound], the “Period of active behaviour” value with mice SAM P 10 was 225.10 ± 25.19 s.

Take `O=C([O-])CC[C@H](NC(=O)c1cncc(O)c1)C(=O)[O-].[Na+].[Na+]` [Compound II, di-Na salt of N-(5-hydroxynicotinoyl)-L-glutamic acid]: the results for the “Life interval of mice (minutes) exposed to hypobaric hypoxia” value in experiment [1] (setting [4]) and in experiment [1] (setting [5]) were 6.51 ± 0.82 min and 5.95 ± 0.84 min, respectively. For the same molecule, the “Life interval of mice (minutes) exposed to hypoxia in hermovolume” value in experiment [2] (setting [4]) was found to be 14.1 ± 0.71 min; in experiment [2] (setting [5]) it was 16.3 ± 0.64 min; in experiment [2] (setting [6]), 17.8 ± 0.69 min. The “Time of presence of animals while PAR reproduction (seconds) in the dark chamber” value turned out to be 78.7 ± 12.3 s in the experiment with rats with amnesia (25 mg/kg intraperitoneally) and 67.5 ± 15.1 s in the experiment with rats with amnesia (50 mg/kg intraperitoneally). In addition, the “Time of presence of animals while PAR reproduction (seconds) on the illuminated platform” value in the experiment with rats with amnesia (25 mg/kg intraperitoneally) is 41.3 ± 11.6 s; in the experiment with rats with amnesia (50 mg/kg intraperitoneally), 52.5 ± 12.3 s.

With `O=C([O-])CC[C@H](NC(=O)c1cncc(O)c1)C(=O)[O-].[K+].[K+]` [Compound III, di-K salt of N-(5-hydroxynicotinoyl)-L-glutamic acid], the “Life interval of mice (minutes) exposed to hypobaric hypoxia” value in experiment [1] (setting [4]) amounted to 3.91 ± 0.63 min; in experiment [1] (setting [5]) it was 5.52 ± 0.54 min. In addition, the figures for the “Life interval of mice (minutes) exposed to hypoxia in hermovolume” value in experiment [2] (setting [4]), in experiment [2] (setting [5]) and in experiment [2] (setting [6]) were 14.2 ± 0.39 min, 15.9 ± 0.45 min and 17.4 ± 0.65 min, respectively. The “Time of presence of animals while PAR reproduction (seconds) in the dark chamber” value came out at 70.7 ± 9.4 s in the experiment on rats with amnesia (25 mg/kg intraperitoneally) and 68.6 ± 7.1 s in the experiment on rats with amnesia (50 mg/kg intraperitoneally). Moreover, the “Time of presence of animals while PAR reproduction (seconds) on the illuminated platform” value in the experiment with rats with amnesia (25 mg/kg intraperitoneally) came to 49.3 ± 10.1 s; with rats with amnesia (50 mg/kg intraperitoneally), 51.4 ± 9.8 s.

On to `COCCOC(=O)C1=C(C)NC(C)=C(C(=O)OC(C)C)C1c1cccc([N+](=O)[O-])c1` (centres unmarked) [Nimodipin], for which, in experiment [3] (setting [7]), the “Latent period of entry to dark chamber (c)” value is 123.7 ± 19.6 c and the “Number of animals, which did not enter dark chamber (%)” value was determined as 58%. For the same molecule, in experiment [3] (setting [8]), the “Latent period of entry to dark chamber (c)” value amounted to 77.5 ± 32.8 c and the “Number of animals, which did not enter dark chamber (%)” value is 33$ %.
